pKi: −log10 of the molar value.
Experiments:
[1] = target: T1, catalytic domain of human stromelysin (Hsln) (Homo sapiens, UniProt P08254); assay: Fluorometric MCA-peptide hydrolysis assay, stromelysin (Hsln); assay type: biochemical; settings: apparent Ki; 10 μM MCA peptide substrate, 37° C., pH 7.5; read-out: Hsln (Ki,app)
T1 construct: The catalytic domain of human stromelysin (Hsln) was obtained by expression and purification of a C-terminally truncated prostromelysin-1; made in house; host or cells: E. coli BL21
In short: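 APMA-activated E. coli–expressed catalytic domain, with 10 μM MCA-Pro-Leu-Gly-Leu-DPA-Ala-Arg-NH2 at 37 °C. Buffer was pH 7.5 Tricine with NaCl, CaCl2, zinc acetate and 2% final DMSO; fluorescence read at ex 328/em 393 nm over 60 min. Ki,app from steady-state rates fitted to competitive or Morrison tight-binding equations.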

[2] = target: T2, fibroblast collagenase-1 catalytic domain (HFC) (Homo sapiens, UniProt P03956); assay: Fluorometric MCA-peptide hydrolysis assay, fibroblast collagenase-1 (HFC); assay type: biochemical; settings: apparent Ki; 10 μM MCA peptide substrate, 37° C., pH 7.5; read-out: HFC (Ki,app)
T2 construct: The catalytic domain of human collagenase-1 was expressed as a fusion protein with ubiquitin in E. coli; ubiquitin (cleaved yes); made in house; host or cells: E. coli
T2 sequence (P03956 100-269 limits assumed): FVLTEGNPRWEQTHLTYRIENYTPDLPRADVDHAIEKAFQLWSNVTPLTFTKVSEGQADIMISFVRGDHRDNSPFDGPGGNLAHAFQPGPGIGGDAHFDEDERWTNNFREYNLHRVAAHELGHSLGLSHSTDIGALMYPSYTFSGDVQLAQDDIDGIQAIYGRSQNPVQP
Experimental: The catalytic domain of human collagenase-1 was expressed as a fusion protein with ubiquitin in E. coli (see Gehring, E. R., J Biol. Chem., 1995, 270, 22507). After purification of the fusion protein, the fibroblast collagenase-1 catalytic domain (HFC) was released either by treatment with purified, active stromelysin-1 (1:50 w/w ratio), which generated nearly 100% N-terminal Phe1, or by autoprocessing the concentrated collagenase-1 fusion and then incubating at 37° C. for 1 hour. Final purification was completed using zinc chelate chromatography.
Assays were performed in assay buffer (50 mM Tricine pH 7.5, 200 mM sodium chloride, 10 mM calcium chloride, 0.5 mM zinc acetate containing 2% dimethyl sulfoxide (DMSO)) once the substrate and inhibitor were diluted into it. Stock solutions of inhibitors were prepared in 100% DMSO. Stock solutions of the substrate were prepared in 100% DMSO at a concentration of 6 mM.
The assay method was based on the hydrolysis of MCA-Pro-Leu-Gly-Leu-DPA-Ala-Arg-NH2 (American Peptide Co.) at 37° C. (see Knight, C. G. et al., FEBS, 1992, 296, 263-266). The fluorescence changes were monitored with a Perkin-Elmer LS-50B fluorimeter using an excitation wavelength of 328 nm and an emission wavelength of 393 nm. The substrate concentration used in the assays was 10 μM. The inhibitor was diluted into the assays from a solution in 100% DMSO, and controls substituted an equal volume of DMSO so that the final DMSO concentration from inhibitor and substrate dilution in all assays was 2%. […] Proper determination of steady-state rates of substrate cleavage required assay lengths of 60 minutes to allow for complete equilibration of the enzyme-inhibitor complex.
The Km for the MCA peptide substrate with the matrix metalloproteinases is quite high and exceeds its solubility under assay conditions. Consequently, the apparent Ki (Ki,app) was determined to describe the strength of inhibition. However, in this case, Ki,app would be essentially equal to Ki since [S]<<Km. For the determination of Ki,app, the concentration of the inhibitor was varied at a constant and low concentration of substrate and the steady-state rates of fluorescence change determined. In most cases absorptive quench due to the presence of ligand was not observed. For slow-binding inhibitors, onset of inhibition curves were collected for at least 45 minutes so that equilibrium was established. Steady-state rates of fluorescence change were obtained by fitting a curve to an equation for a single exponential decay containing a linear phase. The fitted value of the linear phase was taken as the steady-state rate. The steady-state rates were fitted to the Michaelis equation describing competitive inhibition by non-linear methods. Data resulting from tight-binding inhibition was analyzed, and Ki,app determined by fitting the data to the tight-binding equation of Morrison (Biochem. Biophys. Acta, vol. 185, pp. 269-286 (1969)) by non-linear methods.

[3] = target: T3, human progelatinase A (GelA), catalytic and fibronectin-like portion (Homo sapiens, UniProt P08253); assay: Fluorometric MCA-peptide hydrolysis assay, gelatinase A (GelA); assay type: biochemical; settings: apparent Ki; 10 μM MCA peptide substrate, 37° C., pH 7.5
T3 construct: The catalytic and fibronectin-like portion of human progelatinase A (GelA) was expressed as a fusion protein with ubiquitin; ubiquitin; made in house; host or cells: E. coli
In short: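 E. coli-expressed ubiquitin fusion of human proGelA catalytic plus fibronectin-like domains, autoactivated; 10 μM MCA-Pro-Leu-Gly-Leu-DPA-Ala-Arg-NH2, pH 7.5 Tricine/NaCl/CaCl2/Zn buffer, 2% DMSO, 37° C, 60 min. Fluorescence 328/393 nm; steady-state rates fitted to competitive inhibition or Morrison tight-binding equation giving Ki,app (≈Ki since [S]<<Km).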

[4] = Determination of inhibitor concentration in plasma after oral dosing; assay type: in vivo, Sprague Dawley rats; settings: Sprague-Dawley, rat plasma
Experimental: The dosing solution consisted of the inhibitor dissolved in either a molar equivalent of HCl in water (vehicle A), in 60% aq. propylene glycol (vehicle B), or in 2.8 mg/mL sodium bicarbonate in 60% aqueous propylene glycol (vehicle C), yielding a final concentration that ranged from 10-15 mg/ml. Sprague Dawley rats (Hilltop Lab Animals, Scottsdale, Pa.) were dosed as a function of drug weight per body weight, usually 50 mgper kg. Blood was taken from the rats and centrifuged, and the plasma was stored in the freezer. Drug was extracted from a 50 μl plasma aliquot by adding 1 ml of acetonitrile, shaking for 2 minutes, centrifuging for 15 minutes at 4000 rpm, collecting the supernatant, and then evaporating it to dryness under a stream of nitrogen. The samples were reconstituted with 130 μl of mobile phase, shook for 2 minutes, and centrifuged for 15 minutes at 4000 rpm. The supernatant was collected and the samples were analyzed by injecting 100 μl of supernatant onto HPLC.
Quantitation of drug levels was accomplished by generating a standard curve of known drug amounts that were extracted from added plasma. Drug levels were plotted as a function of time and analyzed to provide area under the curve (AUC) and maximum concentration (Cmax) values.

[5] = target: T4, human collagenase-3 (Coll3) (Homo sapiens, UniProt P45452); assay: Fluorometric MCA-peptide hydrolysis assay, collagenase-3 (Coll3); assay type: biochemical; settings: apparent Ki; 10 μM MCA peptide substrate, 37° C., pH 7.5; read-out: Coll3 (Ki,app)
T4 construct: the catalytic domain was liberated by treatment with 2 mM APMA at room temperature overnight; ubiquitin (N, cleaved yes); made in house; host or cells: E. coli

[6] = target: T5, Human matrilysin (Matr) (Homo sapiens, UniProt P09237); assay: Fluorometric MCA-peptide hydrolysis assay, matrilysin (Matr); assay type: biochemical; settings: apparent Ki; 10 μM MCA peptide substrate, 37° C., pH 7.5; read-out: Matr (Ki,app)
T5 construct: the catalytic domain was liberated by treatment with 2 mM APMA at 37° C. for 2 hours; ubiquitin (cleaved yes); made in house; host or cells: E. coli
T5 sequence (P09237 95-267): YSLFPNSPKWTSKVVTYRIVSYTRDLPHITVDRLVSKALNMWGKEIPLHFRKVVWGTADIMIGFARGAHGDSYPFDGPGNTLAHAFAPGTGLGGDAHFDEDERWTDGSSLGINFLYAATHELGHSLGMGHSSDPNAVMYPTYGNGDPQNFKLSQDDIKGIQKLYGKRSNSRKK
In short: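 Catalytic domain of E. coli-expressed human matrilysin assayed at 37° C, pH 7.5 Tricine buffer, 2% DMSO, with 10 μM MCA-Pro-Leu-Gly-Leu-DPA-Ala-Arg-NH2; fluorescence ex 328/em 393 nm over 60 min. Ki,app from steady-state rates fitted to competitive inhibition or Morrison tight-binding equation.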

[7] = dose 50 mg/kg, vehicle B, dosed as the benzyl ester prodrug
[8] = dose 50 mg/kg, vehicle B (60% aq. propylene glycol)
[9] = dose 25 mg/kg, vehicle A (molar equivalent of HCl in water)
[10] = dose 50 mg/kg, vehicle A, dosed as the benzyl ester prodrug
[11] = dose 25 mg/kg, vehicle C (2.8 mg/mL sodium bicarbonate in 60% aqueous propylene glycol)

T3 sequence (P08253 110-465 limits assumed): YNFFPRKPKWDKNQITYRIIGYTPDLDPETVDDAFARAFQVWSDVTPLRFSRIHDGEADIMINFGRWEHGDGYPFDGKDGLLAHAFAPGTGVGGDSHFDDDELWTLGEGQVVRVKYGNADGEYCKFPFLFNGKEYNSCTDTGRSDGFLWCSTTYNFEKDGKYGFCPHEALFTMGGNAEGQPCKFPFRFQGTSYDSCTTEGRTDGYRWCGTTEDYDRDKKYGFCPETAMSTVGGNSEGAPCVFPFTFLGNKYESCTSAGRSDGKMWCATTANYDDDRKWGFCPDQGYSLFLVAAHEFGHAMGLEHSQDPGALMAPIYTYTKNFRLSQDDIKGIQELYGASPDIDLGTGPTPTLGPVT
T1 sequence (P08254 100-272 limits assumed): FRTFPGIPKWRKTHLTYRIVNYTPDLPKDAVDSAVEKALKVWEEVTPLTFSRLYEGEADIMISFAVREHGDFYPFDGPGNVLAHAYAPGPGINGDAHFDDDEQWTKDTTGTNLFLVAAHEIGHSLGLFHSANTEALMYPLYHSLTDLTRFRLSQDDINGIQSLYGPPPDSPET

SMILES | pKi [1] | pKi [2] | GelA (Ki,app) [3] [nM] | AUC [4, 7] [ng·h/mL] | Cmax [4, 7] [ng/mL] | pKi [5] | pKi [6] | melting point | AUC [4, 8] [ng·h/mL] | Cmax [4, 8] [ng/mL] | AUC [4, 9] [ng·h/mL] | Cmax [4, 9] [ng/mL] | AUC [4, 10] [ng·h/mL] | Cmax [4, 10] [ng/mL] | AUC [4, 11] [ng·h/mL] | Cmax [4, 11] [ng/mL]
CNC(=O)[C@@H](NC(=O)[C@@H](CC(=O)O)n1ccc(-c2ccc(-c3ccncc3)cc2)c1)C(C)(C)C [Example 6(b), N-(2,2-Dimethyl-1(S)-(methylcarbamoyl)propyl)-3(R)-[3-(4-(pyridin-4-yl)phenyl)-1H-pyrrol-1-yl]succinamic Acid] | 8.44 | 5.54 | 0.066 | 617 | 300 | 9.68 |  |  |  |  |  |  |  |  |  | 
O=C(O)C[C@H](C(=O)N[C@H](CO)Cc1ccccc1)c1ccn(-c2ccc(-c3ccccc3)cc2)c1 [Example 13] | 7.46 | 4.14 | 1.7 |  |  | 7.68 | 4.77 | 151 to 154 °C |  |  |  |  |  |  |  | 
CNC(=O)[C@@H](NC(=O)[C@@H](CC(=O)O)n1ccc(-c2ccc(C#N)cc2)c1)C(C)(C)C [Example 1(m), 3 (R)-[3-(4-Cyanophenyl)-1H-pyrrol-1-yl]-N-[2,2-dimethyl-1(S)-(methylcarbamoyl)propyl]succinamic Acid] | 7.30 | 6.00 | 0.41 |  |  | 9.00 |  | 138 to 140 °C | 967 | 590 |  |  |  |  |  | 
CC1(C)COC(=O)[C@H]1NC(=O)[C@@H](CC(=O)O)n1ccc(-c2ccc(-c3ccncc3)cc2)c1 [Example 6(c), N-(4,4-Dimethyl-2-oxo-tetrahydrofuran-3(S)-yl)-3(R)-[3-[4-(pyridin-4-yl)phenyl]-1H-pyrrol-1-yl]succinamic Acid] | 7.27 |  | 0.806 |  |  | 8.12 | 5.30 |  |  |  | 933 | 450 | 4420 | 1140 |  | 
CC1(C)COC(=O)[C@H]1NC(=O)[C@@H](CC(=O)O)c1ccn(-c2ccc(-c3ccc(C#N)cc3)cc2)c1 [Example 14(d), 3(S)-[1-(4′-Cyanobiphenyl-4-yl)-1H-pyrrol-3-yl]-N-(4,4-dimethyl-2-oxo-tetrahydrofuran-3(S)-yl)succinamic Acid] | 7.72 |  | 0.9 |  |  |  |  |  |  |  |  |  |  |  | 5820 | 1370
CC(C)(C)[C@H](NC(=O)[C@@H](CC(=O)O)n1ccc(-c2ccc(-c3ccncc3)cc2)c1)C(=O)Nc1ccncc1 [Example 7(b), N-[2,2-Dimethyl-1(S)-(pyridin-4-ylcarbamoyl)propyl]-3(R)-[3-[4-(pyridin-4-yl)phenyl]-1H-pyrrol-1-yl]succinamic Acid] | 9.54 | 6.34 | 0.007 |  |  | 11.00 | 8.30 |  | 400 | 210 |  |  |  |  |  | 
CCOC(=O)c1ccc(NC(=O)[C@H](CC(C)C)NC(=O)[C@@H](CC(=O)O)n2cccc2)cc1 [Example 1(n), 4-[2S-(3-Carboxy-2(R)-1H-pyrrol-1-yl-propionylamido)-4-methyl-pentanoylamino]benzoic Acid Ethyl Ester] | 5.70 | 5.72 |  |  |  | 5.07 | < 5.00 | 111 to 114 °C |  |  |  |  |  |  |  | 
COC(=O)c1ccc(NC(=O)[C@H](CC(C)C)NC(=O)[C@@H](CC(=O)O)c2cccs2)cc1 [Example 17(a), 4-[2(S)-(2(R)-Carboxymethyl-2-(thien-2-yl)acetylamino]-4-methyl-valeroyl]-aminobenzoic Acid Methyl Ester] | 6.02 | 4.49 |  |  |  |  | 6.34 | 197 to 200 °C |  |  |  |  |  |  |  | 
O=C(O)C[C@H](C(=O)N[C@H]1Cc2cn(c3ccccc23)CCOCCNC1=O)n1ccc(-c2ccc(-c3ccncc3)cc2)c1 [Example 7(a), N-(8-Oxo-4-oxa-1,7-diazatricyclo[9.6.1.0^12,17]octadeca-11(18),12,14,16-tetraen-9(S)-yl)-3(R)-[3-[4-(pyridin-4-yl)phenyl]-1H-pyrrol-1-yl]succinamic Acid] | 8.70 | 6.48 | 0.015 |  |  | 10.89 | 6.19 | > 172 °C (dec.) |  |  |  |  |  |  |  | 
CNC(=O)[C@@H](NC(=O)[C@@H](CC(=O)O)c1ccn(-c2ccc(F)cc2)c1)C(C)(C)C [Example 14(a), N-[2,2-Dimethyl-1(S)-(methylcarbamoyl)propyl]-3(S)-[1-(4-fluorophenyl)-1H-pyrrol-3-yl]succinamic Acid] | 6.25 |  | 4.3 |  |  | 8.14 |  |  | 1570 | 820 |  |  |  |  |  | 

Source: patent publication US6495699B2, “Metalloproteinase inhibitors, pharmaceutical compositions containing them, and their use” (Agouron Pharmaceuticals Inc., priority 1996, dated 2002)
